This is an account of results in patent US11426422B2, “SHP2 inhibitors and methods of use thereof” (Research Development Foundation, priority 2018, dated 2022).

SMILES strings stand for the structures.

A short description of data set [1]: body weight of HFD-fed mice. The format is in vivo. The settings on record: 60 mg/kg daily oral gavage; 7 days post administration. The procedure:
FIGS. 8A-B. Effects of the SHP2 inhibitor on body weight and insulin signaling in HFD-WT mice. […] Mean±SD. (FIG. 8B) Quantification of the relative band intensities in FIG. 3E. Mean±SD; n=3 independent experiments.
(§1) The IR staining at the PM in liver sections from mice fed with HFD was weak, and insulin stimulation further reduced it and caused IR endocytosis (FIGS. 3C and D).
(§2) All animals were maintained in a specific antigen-free barrier facility with 12 h light/dark cycles (6 AM on and 6 PM off). Mice were fed a standard rodent chow (2016 Teklad Global 16% protein rodent diet, Harlan Laboratories). For inducing insulin resistance, C57BL/6J (Stock No. 000664, Jackson laboratory) were fed a high-fat (60%) diet (OpenSource Diets, Cat. No. D12492). For in vivo pharmacological assays, 6-8-weeks-old male mice were fed high-fat diet (HFD) for 5 weeks. Two days before drug administration, mice were switched to normal chow. […] For glucose tolerance test, mice were fasted for 14 h, and their blood glucose levels (T=0) were measured with tail bleeding using a glucometer (AlphaTRAK®). […] Blood glucose levels were measured at 15, 30, 60, and 120 min after glucose injection. For insulin tolerance test, mice fasted for 4 h were injected intraperitoneally with recombinant human insulin (Eli Lilly) at 1 U/kg body weight, and their blood glucose levels were measured at 0, 15, 30 and 60 min after injection.

A further data set concerns HFD-fed mice. In words: insulin tolerance test in HFD-fed mice. The format is in vivo. The settings on record: 60 mg/kg daily oral gavage for 6 days; male mice fed HFD 5 weeks; insulin 1 U/kg. The procedure:
(FIG. 3A) Glucose tolerance test in 14 h fasted male mice fed a HFD for 5 weeks. […] At 1 day after drug treatment, glucose tolerance test was performed. Mean±SEM. (FIG. 3B) Insulin tolerance test of mice treated as described in FIG. 3A. Mean±SEM. […] The liver sections were stained with anti-IR (red) and DAPI (blue). Scale bars, 5 μm. (FIG. 3D) Quantification of the ratios of PM and IC IR signals of the livers in C (mean±SD; *p<0.0001). […] Cell lysates were blotted with the indicated antibodies.
as §1
as §2, with “Laboratories).” for “Laboratories). For inducing insulin resistance, C57BL/6J (Stock No. 000664, Jackson laboratory) were fed a high-fat (60%) diet (OpenSource Diets, Cat. No. D12492). For in vivo pharmacological assays, 6-8-weeks-old male mice were fed high-fat diet (HFD) for 5 weeks. Two days before drug administration, mice were switched to normal chow.”

For data set [2], the system named is HepG2 cells expressing IR-GFP mutants. In words: cellular localization of IR-GFP mutants in HepG2 cells after inhibitors. In kind it is cell-based. The settings on record: starved 14 h, inhibitors 4 h, no insulin. The text has this: FIGS. 4A-E. Dysregulation of IR endocytosis as a potential contributing factor to human insulin resistance syndromes. (FIG. 4A) Representative images of liver specimens from human non-diabetes and diabetes patients stained with DAPI (blue) and anti-IR (red) and anti-ZO-1 (green) antibodies. Scale bars, 40 μm. (FIG. 4B) Quantification of the percentage of cells with positive IR PM signals in liver specimens in FIG. 4A (mean±SD; *p<0.0001). (FIG. 4C) HepG2 cells stably expressing IR-GFP R1020Q, V1054M, A1075D, V1086E, or I1143T were serum starved and stained with anti-GFP and anti-RAB7 antibodies. Scale bar, 5 μm. (FIG. 4D) Quantification of the ratios of PM and IC IR-GFP signals of cells in FIG. 4C (mean±SD; *p<0.0001). (FIG. 4E) Targeting feedback regulation of IR endocytosis for diabetes treatment. Left panel depicts the feedback regulation of IR endocytosis by ERK1/2 and SHP2 during unperturbed insulin signaling.
FIGS. 9A-D. Characterization of IR mutations found in human patients. (FIG. 9A) HepG2 cells expressing IR-GFP Class I mutants (P997T, V1012M, A1055V, K1095E, R1119Q, H1157R, R1191Q, Y1361C, or R1378Q) were starved for 14 h, treated with the indicated inhibitors for 4 h, and stained with anti-GFP (IR; green) and DAPI (blue). Scale bar, 5 m. (FIG. 9B) HepG2 cells expressing IR-GFP Class II mutants (R1020Q, V1054M, A1075D, V1086E, or I1143T) were analyzed as described in FIG. 9A. (FIG. 9C) HepG2 cells expressing IR-GFP Class III mutants (A1162E or W1220L) were analyzed as described in A. (FIG. 9D) HepG2 cells expressing IR-GFP WT, R1020Q, or V1054M were serum starved for 14 h and treated with DMSO or 80 μM Dynasore for 4 h. Cell lysates were blotted with the indicated antibodies.
Mutations of IR are known to cause inherited severe insulin resistance syndromes, but the mechanisms by which these mutations affect IR function have not been systematically explored. HepG2 cell lines were generated which stably expressed IR mutants fused to GFP, and the subcellular localization of these IR-GFP proteins was examined (FIGS. 9A-C and Table 1).
There were three distinct classes of IR mutants based on their subcellular localization in the unstimulated state. Class I mutants localized to the PM. […] Thus, certain IR mutations found in human insulin resistance syndromes perturbs IR kinase regulation and causes premature IR endocytosis.
Cellular localization of IR mutants was examined after inhibiting the SHP2 or MAPK pathways (FIGS. 4C-D, and FIGS. 9A-C).
Indirect immunofluorescence microscopy was performed on cells grown on coverslips and fixed in cold methanol at −20° C. for 10 min. The fixed cells were incubated with PBS for 30 min and 3% BSA in 0.1% PBST for 1 h, and then treated with diluted antibodies in 0.3% BSA in 0.1% PBST at 4° C. overnight. After being washed, cells were incubated with fluorescent secondary antibodies and mounted on microscope slides in ProLong Gold Antifade reagent with DAPI (Invitrogen). Images of fixed cells were acquired as a series of 0.4 m stacks with a DeltaVision® system (Applied Precision®, Issaquah, Wash.). Raw images were deconvolved using the iterative algorithm implemented in the softWoRx® software (Applied Precision®, Issaquash, Wash.). The central section of a 0.4 μm z-stack containing 3 contiguous focal planes was used for quantification. The cell edges were defined with Image J. The whole cell signal intensity (WC) and intracellular signal intensity (IC) were measured. The plasma membrane signal intensity (PM) was calculated by subtracting IC from WC. Identical exposure times and magnifications were used for all comparative analyses.

For `CC1(N)CCN(c2cnc(-c3cccc(Cl)c3Cl)c(N)n2)CC1` [SHP099], the body weight entry in data set [1] is recorded as “did not change the body weight”. For the same molecule, the insulin sensitivity entry with HFD-fed mice is on record as “markedly increased”. Also, in data set [2], the “PM levels of Class I and III IR mutants” value was “not those of Class I and III IR mutants”. The “PM levels of Class II IR mutants” value in data set [2] (R1020Q, V1054M, A1075D, V1086E, I1143T) is reported as “significantly enhanced the PM levels of Class II IR mutants”.
